Data published in patent US4268630A, “Microbiological production of ketones from C3 -C6 alkanes” (priority 1979, dated 1981).
Read-outs that look alike come from different tables or passages of the source.

Tests used:
[1] = system: cell-free secondary alcohol dehydrogenase (SADH) system; experiment: Cofactor requirement of cell-free soluble extracts oxidizing 2-butanol; type: biochemical
Protocol: To prepare the cell-free secondary alcohol dehydrogenase (SADH) system, the washed cells were disrupted with a Wave Energy Ultrasonic Oscillator, Model W201 (Wave Energy System, Inc., Newtown, Pa.) and centrifuged at 20,000× g. for 30 minutes. […] The enzyme activity was measured with a fluorescence spectrophotometer (Perkin Elmer, Model MPF 44A) by following the formation of reduced NAD (EX 340 nm, Em 460 nm). The formation of reduced NAD was also followed with an absorption spectrophotometer at 340 nm. The assay system (3 ml.) contained: potassium phosphate buffer pH 7.0; 150 μmol.; NAD 1 μmol.; a given amount of enzyme preparation; and secondary alcohol 10 μmol. The reaction was started by the addition of substrate. One unit of enzyme activity represents the reduction of one μmole NAD per minute. Protein concentrations were determined by the Lowry method (J. Biol. Chem., 193: 255-275 (1951)).

[2] = system: cell-free extracts of strain ATCC 21439; conditions: fluorescence spectrophotometry
Protocol: The reaction mixtures 3 ml (1.0 mg protein) were incubated at 30°
C. for 10 min. (exp. 1) and for 20 min. (exp. 2) in the presence of 1.0
^(a) Determined gas chromatographically.
^(b) Determined fluorescence spectrophotometrically. Endogenous
consumption of NAD was corrected.

[3] = system: secondary alcohol dehydrogenase; experiment: Activity of purified yeast-derived secondary alcohol dehydrogenase; type: biochemical, Pichia sp. NRRL Y-11,328; conditions: purified enzyme

## NC(=O)c1ccc[n+]([C@@H]2O[C@H](COP(=O)([O-])OP(=O)(O)OC[C@H]3O[C@@H](n4cnc5c(N)ncnc54)[C@H](O)[C@@H]3O)[C@@H](O)[C@H]2O)c1 [NAD, Nicotinamide adenine dinucleotide]
[1]
  effectiveness as cofactor for oxidation of 2-butanol: required
[2]; Experiment 1: 10 min
  NAD Consumed: 270 nmol
[2]; Experiment 2: 20 min
  NAD Consumed: 540 nmol
[3]
  ability to act as electron acceptor/carrier: required
